Measurements reported in ChEMBL document CHEMBL4651402, “Screening of ~5500 FDA-approved drugs and clinical candidates for anti-SARS-CoV-2 activity” (2021).
Counter-ions that a name gives are not always drawn.

Tested on: SARS-CoV-2
Assay: microbe, parasite or virus in culture
Conditions: Severe acute respiratory syndrome coronavirus 2, Vero C1008, 48 h

| SMILES | IC50 | IC50 (read-out: pIC50 (converted)) |
| --- | --- | --- |
| CC(N)(Cc1ccc(O)c(O)c1)C(=O)O (stereo not drawn) [METHYLDOPA (RACEMIC)] | > 20 µM | > 20 µM |
| CCOC(=O)[C@@](C)(N)Cc1ccc(O)c(O)c1 [METHYLDOPATE] | > 20 µM | > 20 µM |
| C[N+]1(CC2CC2)CC[C@]23c4c5ccc(O)c4O[C@H]2C(=O)CC[C@@]3(O)[C@H]1C5 (stereo partly specified) [METHYLNALTREXONE] | > 20 µM | > 20 µM |
| COC(=O)c1ccc(O)cc1 [METHYLPARABEN] | > 20 µM | > 20 µM |
| C[C@H]1C[C@@H]2[C@H]([C@@H](O)C[C@@]3(C)[C@H]2CC[C@]3(O)C(=O)CO)[C@@]2(C)C=CC(=O)C=C12 [METHYLPREDNISOLONE] | > 20 µM | > 20 µM |
| C[C@]12CCC(=O)C=C1CC[C@@H]1[C@@H]2CC[C@@]2(C)[C@H]1CC[C@]2(C)O [METHYLTESTOSTERONE] | > 20 µM | > 20 µM |
| Cc1cc(=O)[nH]c(=S)[nH]1 [METHYLTHIOURACIL] | > 20 µM | > 20 µM |
| CN1c2ccccc2Sc2ccc(CC(=O)O)cc21 [METIAZINIC ACID] | > 20 µM | > 20 µM |
| COc1cc(Cc2cnc(N)nc2N)cc(OC)c1SC [METIOPRIM] | > 20 µM | > 20 µM |
| CSc1ccc2c(c1)C(N1CCN(C)CC1)Cc1ccccc1S2 (stereo unspecified) [METITEPINE] | > 20 µM | > 20 µM |
| Cc1sc2ccccc2c1CC1=NCCN1 [METIZOLINE] | > 20 µM | > 20 µM |
| CCN(CC)CCNC(=O)c1cc(Cl)c(N)cc1OC [METOCLOPRAMIDE] | > 20 µM | > 20 µM |
| Cc1ccccc1N1C(=O)c2cc(S(N)(=O)=O)c(Cl)cc2NC1C (stereo unspecified) [METOLAZONE] | > 20 µM | > 20 µM |
| CS(=O)(=O)c1ccc2c(c1)N(CCCN1CCC(C(N)=O)CC1)c1ccccc1S2 [METOPIMAZINE] | > 20 µM | > 20 µM |
| Cc1nc(N)nc(N)c1-c1ccc(Cl)c(Cl)c1 [METOPRINE] | > 20 µM | > 20 µM |
| COCCc1ccc(OCC(O)CNC(C)C)cc1 (stereo unspecified) [METOPROLOL] | > 20 µM | > 20 µM |
| CC(=O)Nc1c(I)c(C(=O)N[C@H]2C(O)O[C@H](CO)[C@@H](O)[C@@H]2O)c(I)c(N(C)C(C)=O)c1I (stereo partly specified) [METRIZAMIDE] | > 20 µM | > 20 µM |
| Cc1ncc([N+](=O)[O-])n1CCO [METRONIDAZOLE] | > 20 µM | > 20 µM |
| CC(C)(C(=O)c1cccnc1)c1cccnc1 [METYRAPONE] | > 20 µM | > 20 µM |
| CC[C@H](C)C(=O)O[C@H]1CCC=C2C=C[C@H](C)[C@H](CC[C@@H]3C[C@@H](O)CC(=O)O3)[C@H]21 [MEVASTATIN] | > 20 µM | > 20 µM |
| COc1ccc(C(=O)c2ccc(C)cc2)c(O)c1 [MEXENONE] | > 20 µM | > 20 µM |
| CN1CCN2c3ccccc3Cc3ccccc3C2C1 (stereo unspecified) [MIANSERIN] | > 20 µM | > 20 µM |
| c1ccc(C(CC2=NCCN2)c2ccccn2)cc1 (stereo unspecified) [MIDAGLIZOLE] | > 20 µM | > 20 µM |
| COc1ccc(OC)c(C(O)CNC(=O)CN)c1 (stereo unspecified) [MIDODRINE] | > 20 µM | > 20 µM |

| SMILES | IC50 | IC50 (read-out: pIC50 (converted)) |
| --- | --- | --- |
| CC(C)/N=C/Nc1ccc(-c2c[nH]cn2)cc1 [MIFENTIDINE] | > 20 µM | > 20 µM |
| CC#C[C@]1(O)CC[C@H]2[C@@H]3CCC4=CC(=O)CCC4=C3[C@@H](c3ccc(N(C)C)cc3)C[C@@]21C [MIFEPRISTONE] | > 25.1 µM | > 25.1 µM |
| COP(=O)(OC)OC(c1ccc(Cl)cc1)P(=O)(OC)OC (stereo unspecified) [MIFOBATE] | > 20 µM | > 20 µM |
| OCCN1C[C@H](O)[C@@H](O)[C@H](O)[C@H]1CO [MIGLITOL] | > 20 µM | > 20 µM |
| CO/N=C/C1=CCCN(C)C1 [MILAMELINE] | > 20 µM | > 20 µM |
| COc1cc2[nH]c(C)c(CCN3CCN(c4ccccc4OC)CC3)c2cc1OC [MILIPERTINE] | > 20 µM | > 20 µM |
| Cc1[nH]c(=O)c(C#N)cc1-c1ccncc1 [MILRINONE] | > 20 µM | > 20 µM |
| Cc1cc(-c2ccccc2)nnc1NCCN1CCOCC1 [MINAPRINE] | > 20 µM | > 20 µM |
| CCCc1c2nc(C(=O)O)cc(NC)c2cc2c(=O)cc(C(=O)O)oc12 [MINOCROMIL] | > 20 µM | > 20 µM |
| CN(C)c1ccc(O)c2c1C[C@H]1C[C@H]3[C@H](N(C)C)C(O)=C(C(N)=O)C(=O)[C@@]3(O)C(O)=C1C2=O [MINOCYCLINE] | > 20 µM | > 20 µM |
| Nc1cc(N2CCCCC2)nc(N)[n+]1[O-] [MINOXIDIL] | > 20 µM | > 20 µM |
| O=c1[nH]c(=O)c(Cc2cccc(C(F)(F)F)c2)c([C@H]2CC[C@H](c3ccccc3)CC2)[nH]1 [MIRICORILANT] | > 20 µM | > 20 µM |
| CN1CCN2c3ncccc3Cc3ccccc3C2C1 (stereo unspecified) [MIRTAZAPINE] | > 20 µM | > 20 µM |
| COCC(O)Cn1ccnc1[N+](=O)[O-] (stereo unspecified) [MISONIDAZOLE] | > 20 µM | > 20 µM |
| CCCCC(C)(O)C/C=C/[C@H]1[C@H](O)CC(=O)[C@@H]1CCCCCCC(=O)OC (stereo partly specified) [MISOPROSTOL] | > 20 µM | > 20 µM |
| CCc1ccc(C(=O)COc2ccc(CC3SC(=O)NC3=O)cc2)nc1 (stereo unspecified) [MITOGLITAZONE] | > 20 µM | > 20 µM |
| CO[C@@]12[C@H](COC(N)=O)C3=C(C(=O)C(C)=C(N)C3=O)N1C[C@@H]1N[C@@H]12 [MITOMYCIN] | > 20 µM | > 20 µM |
| Clc1ccc(C(c2ccccc2Cl)C(Cl)Cl)cc1 (stereo unspecified) [MITOTANE] | > 20 µM | > 20 µM |
| O=C1c2c(O)ccc(O)c2C(=O)c2c(NCCNCCO)ccc(NCCNCCO)c21 [MITOXANTRONE] | > 20 µM | > 20 µM |
| O=C(CN1C(=O)C2(CCCC2)NC[C@H]1c1cc(F)cc(F)c1)Nc1ccc2c(c1)C[C@@]1(C2)C(=O)Nc2ncccc21 [MK3207] | > 20 µM | > 20 µM |
| CN(C)C(=O)CCSC(SCCC(=O)O)c1cccc(/C=C/c2ccc3ccc(Cl)cc3n2)c1 (stereo unspecified) [MK-571] | > 20 µM | > 20 µM |
| CCn1ncnc1COc1nn2c(-c3ccccc3F)nnc2cc1C(C)(C)C [MK-0777] | > 20 µM | > 20 µM |
| NC1(c2ccc(-c3nc4ccn5c(=O)[nH]nc5c4cc3-c3ccccc3)cc2)CCC1 [MK-2206] | > 20 µM | > 20 µM |
| Cc1ccc(Cc2cc3c(=O)n([C@H]4CCCC[C@@H]4O)cnc3c3ccccc23)cn1 [MK-7622] | > 20 µM | > 20 µM |
| CS(=O)(=O)c1ccc(-c2cnc(N)c(-c3ccc(C(F)(F)F)nc3)c2)cc1 [MMV-048] | > 20 µM | > 20 µM |

| SMILES | IC50 | IC50 (read-out: pIC50 (converted)) |
| --- | --- | --- |
| Nc1ccccc1NC(=O)c1ccc(CNc2nccc(-c3cccnc3)n2)cc1 [MOCETINOSTAT] | > 20 µM | > 20 µM |
| O=C(NCCN1CCOCC1)c1ccc(Cl)cc1 [MOCLOBEMIDE] | > 20 µM | > 20 µM |
| NC(=O)C[S+]([O-])C(c1ccccc1)c1ccccc1 (stereo unspecified) [MODAFINIL] | > 20 µM | > 20 µM |
| Cc1nccnc1N1CCCCC1 [MODALINE] | > 20 µM | > 20 µM |
| COc1cc(C(=O)Nc2ccccc2CCC2CCCCN2C)ccc1O (stereo unspecified) [MODECAINIDE] | > 20 µM | > 20 µM |
| CCOC(=O)[C@H](CCc1ccccc1)N[C@@H](C)C(=O)N1Cc2cc(OC)c(OC)cc2C[C@H]1C(=O)O [MOEXIPRIL] | > 20 µM | > 20 µM |
| CCc1c(C)[nH]c2c1C(=O)C(CN1CCOCC1)CC2 (stereo unspecified) [MOLINDONE] | > 20 µM | > 20 µM |
| CCOC(=O)[N-]c1c[n+](N2CCOCC2)no1 [MOLSIDOMINE] | > 20 µM | > 20 µM |
| N#CCNC(=O)c1ccc(-c2ccnc(Nc3ccc(N4CCOCC4)cc3)n2)cc1 [MOMELOTINIB] | > 20 µM | > 20 µM |
| C[C@@H]1C[C@H]2[C@@H]3CCC4=CC(=O)C=C[C@]4(C)[C@@]3(Cl)[C@@H](O)C[C@]2(C)[C@@]1(OC(=O)c1ccco1)C(=O)CCl [MOMETASONE FUROATE] | > 20 µM | > 20 µM |
| CC[C@@]1([C@@H]2O[C@@H]([C@H]3O[C@@](O)(CO)[C@H](C)C[C@@H]3C)C[C@@H]2C)CC[C@H]([C@]2(C)CC[C@]3(C[C@H](O)[C@@H](C)[C@@H]([C@@H](C)[C@@H](OC)[C@H](C)C(=O)O)O3)O2)O1 [MONENSIN] | > 20 µM | > 20 µM |
| Oc1ccc(OCc2ccccc2)cc1 [MONOBENZONE] | > 20 µM | > 20 µM |
| C[C@H]1C(=O)O[C@@H]2CCN3CC=C(COC(=O)[C@](C)(O)[C@]1(C)O)[C@H]23 [MONOCROTALINE] | > 20 µM | > 20 µM |
| NCCO [MONOETHANOLAMINE] | > 20 µM | > 20 µM |
| COC(=O)/C=C/C(=O)O [MONOMETHYL FUMARATE] | > 20 µM | > 20 µM |
| CC(C)(O)c1ccccc1CC[C@@H](SCC1(CC(=O)O)CC1)c1cccc(/C=C/c2ccc3ccc(Cl)cc3n2)c1 [MONTELUKAST] | > 20 µM | > 20 µM |
| Cc1ccc(C2(O)CCN(CCCC(=O)c3ccc(F)cc3)CC2)cc1 [MOPERONE] | > 20 µM | > 20 µM |
| COc1ccccc1OCC(O)CNC(C)C (stereo unspecified) [MOPROLOL] | > 20 µM | > 20 µM |
| Cc1ccsc1/C=C/C1=NCCCN1C [MORANTEL] | > 20 µM | > 20 µM |
| CCOC(=O)Nc1ccc2c(c1)N(C(=O)CCN1CCOCC1)c1ccccc1S2 [MORICIZINE] | > 20 µM | > 20 µM |
| O=c1c(O)c(-c2ccc(O)cc2O)oc2cc(O)cc(O)c12 [MORIN] | > 20 µM | > 20 µM |
| O=C(OCCN1CCOCC1)c1cccnc1Nc1cccc(C(F)(F)F)c1 [MORNIFLUMATE] | > 20 µM | > 20 µM |
| N=C(N)NC(=N)N1CCOCC1 [MOROXYDINE] | > 20 µM | > 20 µM |
